The values that follow are results of earlier work, collected in US8226992B1, “Composition and method of preventing and treating redox diseases” (priority 2009, dated 2012).

Data set [1] has as its target T1, Farnesoid X Receptors (FXR) (Mus musculus, UniProt Q60641).
T1 sequence (Q60641 1-488): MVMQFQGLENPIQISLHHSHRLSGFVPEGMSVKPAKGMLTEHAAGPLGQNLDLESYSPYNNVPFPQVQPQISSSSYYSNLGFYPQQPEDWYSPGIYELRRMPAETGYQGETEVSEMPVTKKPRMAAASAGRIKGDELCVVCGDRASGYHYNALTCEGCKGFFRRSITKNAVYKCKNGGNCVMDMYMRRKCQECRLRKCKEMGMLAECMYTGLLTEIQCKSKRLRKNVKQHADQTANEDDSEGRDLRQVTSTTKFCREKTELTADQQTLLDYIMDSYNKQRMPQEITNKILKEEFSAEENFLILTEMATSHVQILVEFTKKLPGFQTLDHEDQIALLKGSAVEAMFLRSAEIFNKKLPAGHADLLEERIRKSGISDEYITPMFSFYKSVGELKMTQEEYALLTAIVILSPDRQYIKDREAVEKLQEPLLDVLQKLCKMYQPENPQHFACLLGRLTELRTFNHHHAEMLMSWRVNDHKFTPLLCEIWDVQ
Particulars: mouse model.

The conditions of data set [2]: at high levels.

As for `C[C@@]12CCc3occc3[C@H]1CC[C@@]13C[C@@H](CC[C@H]12)[C@@](O)(CO)C3` [Cafestol], the “activity at Farnesoid X Receptors (FXR)” value in data set [1] is on record as “agonist ligand”. For the molecule `O=C(O)c1cccnc1` [Naicin], the “Lp(a) levels reduced” value in data set [2] is “up to 15%”.
